Assays:
Experiment in all cases: relative viability (nuclei count vs DMSO), 5 days (fraction); higher = more cells survive
[1] = compound: C1COCCN1C2=NC(=NC3=C2OC4=C3C=CC=N4)C5=CC(=CC=C5)NC(=O)C6=CN=C(C=C6)N + Cc1nc(NC(=O)N2CCC[C@H]2C(N)=O)sc1-c1ccnc(C(C)(C)C(F)(F)F)c1 [Alpelisib] (partner 2 µM)
In short: (§1)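 Medians of duplicate plates are given as relative viability. That measure is the nuclei count in treated wells divided by the count in vehicle wells. Counts were taken on 4× images of lung cancer cell lines in 1536-well plates, 5 days after pin-tool dosing the day after seeding with one drug alone or a fixed anchor-drug dose plus five library-drug doses (not always all listed) in √10 steps.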

[2] = compound: C1COCCN1C2=NC(=NC3=C2OC4=C3C=CC=N4)C5=CC(=CC=C5)NC(=O)C6=CN=C(C=C6)N + O=C(c1cc(Cc2n[nH]c(=O)c3ccccc23)ccc1F)N1CCN(C(=O)C2CC2)CC1 [Olaparib] (partner 8 µM)
In short: as §1

[3] = compound: CN1CCC(CNc2ccc3ncc(-c4cccc(OC(F)(F)F)c4)n3n2)CC1 [SGI-1776] + CC(=O)Nc1cccc(-n2c(=O)n(C3CC3)c(=O)c3c(Nc4ccc(I)cc4F)n(C)c(=O)c(C)c32)c1 [Trametinib] (partner 0.02 µM)
In short: as §1

[4] = compound: CN1CCC(CNc2ccc3ncc(-c4cccc(OC(F)(F)F)c4)n3n2)CC1 [SGI-1776] + CS(=O)(=O)CCNCc1ccc(-c2ccc3ncnc(Nc4ccc(OCc5cccc(F)c5)c(Cl)c4)c3c2)o1 [Lapatinib] (partner 2 µM)
In short: as §1

Row | Cell Line | relative viability ([1]; first compound 0.02 µM) | relative viability ([1]; first compound 0.06325 µM) | relative viability ([1]; first compound 0.2 µM) | relative viability ([1]; first compound 0.6325 µM) | relative viability ([1]; first compound 2 µM) | relative viability ([2]; first compound 0.02 µM) | relative viability ([2]; first compound 0.06325 µM) | relative viability ([2]; first compound 0.2 µM) | relative viability ([2]; first compound 0.6325 µM) | relative viability ([2]; first compound 2 µM) | relative viability ([3]; first compound 0.08 µM) | relative viability ([3]; first compound 0.8 µM) | relative viability ([3]; first compound 2.53 µM) | relative viability ([3]; first compound 8 µM) | relative viability ([4]; first compound 0.08 µM) | relative viability ([4]; first compound 0.8 µM) | relative viability ([4]; first compound 2.53 µM) | relative viability ([4]; first compound 8 µM)
1 | COR-L 105 | 0.912 | 1.02 | 0.801 | 0.705 | 0.583 | 0.71 | 0.649 | 0.607 | 0.671 | 0.63 | 0.504 | 0.388 | 0.452 | 0.41 | 0.332 | 0.394 | 0.388 | 0.244
2 | EKVX | 0.838 | 0.787 | 0.94 | 0.867 | 0.572 | 0.929 | 0.831 | 0.88 | 0.832 | 0.563 | 0.386 | 0.342 | 0.344 | 0.31 | 0.225 | 0.205 | 0.209 | 0.166
3 | EMC-BAC-2 | 0.794 | 0.867 | 0.785 | 0.707 | 0.589 | 0.483 | 0.484 | 0.472 | 0.476 | 0.445 | 0.992 | 0.966 | 0.853 | 0.879 | 0.912 | 0.902 | 0.836 | 0.849
4 | EPLC-272H | 0.972 | 0.883 | 0.974 | 0.967 | 0.673 | 0.732 | 0.807 | 0.547 | 0.721 | 0.58 | 0.288 | 0.282 | 0.307 | 0.282 | 1.04 | 0.889 | 1.1 | 0.771
5 | H3255 | 0.577 | 0.714 | 0.628 | 0.693 | 0.483 | 0.522 | 0.531 | 0.531 | 0.56 | 0.436 | 0.633 | 0.582 | 0.577 | 0.559 | 0.285 | 0.33 | 0.259 | 0.198
6 | HARA | 0.927 | 0.946 | 0.922 | 0.743 | 0.436 | 0.845 | 0.727 | 1.09 | 0.764 | 0.75 | 0.652 | 0.74 | 0.604 | 0.732 | 0.886 | 0.856 | 0.617 | 0.586
7 | HCC-15 | 0.901 | 0.848 | 0.843 | 0.827 | 0.637 | 0.757 | 0.775 | 0.735 | 0.671 | 0.628 | 0.262 | 0.376 | 0.332 | 0.338 | 0.821 | 0.882 | 0.933 | 0.786
8 | HCC-44 | 0.803 | 0.879 | 1.04 | 0.807 | 0.499 | 0.94 | 1.06 | 1.02 | 1.08 | 0.918 | 1.04 | 1.05 | 0.988 | 1.09 | 1.04 | 1.15 | 1.01 | 0.962
9 | HCC-78 | 0.34 | 0.331 | 0.378 | 0.324 | 0.318 | 0.751 | 0.896 | 0.85 | 0.842 | 0.583 | 0.772 | 0.804 | 0.693 | 0.72 | 0.848 | 0.7 | 0.783 | 0.698
10 | HCC-366 | 0.575 | 0.471 | 0.314 | 0.287 | 0.189 | 0.488 | 0.419 | 0.322 | 0.412 | 0.218 | 0.344 | 0.368 | 0.289 | 0.19 | 1.12 | 0.95 | 0.992 | 0.837
11 | HCC-827 | 0.984 | 0.92 | 0.958 | 0.961 | 0.815 | 0.567 | 0.61 | 0.771 | 0.575 | 0.589 | 0.578 | 0.534 | 0.578 | 0.464 | 0.168 | 0.201 | 0.16 | 0.194
12 | HOP-62 | 0.818 | 1.13 | 0.947 | 0.979 | 0.518 | 0.632 | 0.5 | 0.447 | 0.7 | 0.255 | 0.384 | 0.359 | 0.437 | 0.367 | 1.19 | 0.954 | 1.16 | 0.928
13 | LC-2-ad | 0.824 | 0.83 | 0.893 | 0.782 | 0.531 | 0.678 | 0.705 | 0.682 | 0.846 | 0.648 | 0.885 | 0.926 | 0.931 | 0.822 | 1.04 | 0.95 | 1.01 | 0.88
14 | LCLC-97TM1 | – | 0.265 | 0.208 | 0.313 | 0.249 | 0.533 | 0.388 | 0.341 | 0.33 | 0.287 | 0.216 | 0.205 | 0.195 | 0.199 | 1 | 0.79 | 1.14 | 0.95
15 | LK-2 | 1.07 | 1.15 | 1.2 | 1.06 | 0.856 | 0.609 | 0.902 | 0.691 | 0.651 | 0.464 | 0.778 | 0.69 | 0.63 | 0.708 | 1.13 | 1.06 | 0.781 | 0.75
16 | LOU-NH91 | 0.696 | 0.728 | 0.768 | 0.749 | 0.667 | 0.928 | 0.959 | 0.942 | 0.864 | 0.745 | 0.808 | 0.766 | 0.806 | 0.695 | 0.818 | 0.824 | 0.75 | 0.588
17 | LU99A | 0.608 | 0.46 | 0.41 | 0.379 | 0.284 | 0.264 | 0.27 | 0.226 | 0.262 | 0.222 | 0.62 | 0.594 | 0.542 | 0.515 | 1.03 | 1.16 | 1.07 | 0.902
18 | LXF-289 | 1.12 | 1.09 | 1.02 | 1 | 0.785 | 1.13 | 1.18 | 1.17 | 1.06 | 0.803 | 0.68 | 0.64 | 0.668 | 0.606 | 0.945 | 0.941 | 0.893 | 0.895

Reference: the supplement of paper PMC10307832
